Measurements: EP0354047A2, “Herbicidal method using atrazine” (MAY & BAKER LIMITED, priority 1988, dated 1990)

Experiments:
Assay type in all cases: in vivo
Amaranthus retroflexus = test: Experiment 3: glasshouse, post-emergence, fresh weight after 19 days, % inhibition of growth; settings: 2 leaves; for inhibition at 2 g/ha / inhibition at 4 g/ha / inhibition at 8 g/ha / inhibition at 16 g/ha / inhibition at 31 g/ha / inhibition at 63 g/ha: Amaranthus retroflexus, post-emergence
Protocol: (§1) A series of experiments was carried out to determine the nature of the biological interaction between atrazine and five compounds of general formula I on a range of weed species. […] The growth stages of the plants at spraying are also presented with the results. Agricultural surfactant (nonyl phenol ethylene oxide condensate containing 9 moles ethylene oxide marketed as 'Agral') was added to all spray dilutions to give 0.2% v/v concentration. […] After 19 days the fresh weight of vegetation in each pot was determined. […] E = […]00003:character} where E, X and Y are percentage inhibition of growth. In addition, the ED50 or ED90 values (the application rates giving 50% or 90% inhibition of growth, respectively) were calculated from the results for the piperidinedione alone and with increasing rates of atrazine.

[1] = tested on: Brachiaria plantaginea (BRAPL); test: Experiment 1: field experiment, post-emergence spray, % control 29 days after application
Protocol: (§2) Duplicate 12m² plots were sprayed post-emergence with 250g or 500g/ha Compound 1 (in a composition according to Example 1 as described hereinafter) or 1500g/ha atrazine (in a commercial aqueous suspension concentrate formulation containing 500g/l w/v atrazine or a combination (as a tank mix) of the two herbicides in a volume of 300 litres/ha. The following control figures were recorded on the grass weeds Brachiaria plantaginea (BRAPL), Digitaria horizontalis (DIGHO) and Eleusine indica (ELEIN) 29 days after application.

Eleusine indica (ELEIN) = test: as above
Protocol: as §2

[2] = tested on: Digitaria horizontalis (DIGHO); test: as above
Protocol: as §2

Brassica kaber [3] = test: Experiment 3: glasshouse, post-emergence, fresh weight after 19 days, % inhibition of growth; settings: 2 leaves; for inhibition at 2 g/ha / inhibition at 4 g/ha / inhibition at 8 g/ha / inhibition at 16 g/ha / inhibition at 31 g/ha / inhibition at 63 g/ha: Mutarda arvensis, post-emergence
Protocol: as §1

Solanum nigrum = test: as above; settings: for inhibition at 2 g/ha / inhibition at 4 g/ha / inhibition at 8 g/ha / inhibition at 16 g/ha / inhibition at 31 g/ha / inhibition at 63 g/ha: Solanum nigrum, post-emergence
Protocol: as §1

Brassica kaber [4] = test: Experiment 4: glasshouse, pre-emergence, fresh weight after 27 days, % inhibition of growth; settings: for % inhibition of growth: Atrazine 0 g/ha
Protocol: (§3) Glasshouse experiments showing the biological interaction between atrazine and Compound 99 on weed species when applied pre-emergence. […] After 27 days the fresh weight of vegetation in each pot was determined. […] E = […]00005:character} where E, X and Y are percentage inhibition of growth. In addition the ED90 values (the application rate giving 90% inhibition of growth) were calculated from the results for Compound 99 alone and with increasing rates of atrazine. The ED90 values were then used to plot an isobole for each species according to the method of […] op cit. The results of percentage inhibition of growth, the ED values calculated from them and the calculated expected values are given in Table 8.

Sida spinosa = test: as above; settings: for % inhibition of growth: Atrazine 0 g/ha
Protocol: as §3

In the case of `CC1(C)CC(=O)C(C(=O)c2ccc(Cl)cc2[N+](=O)[O-])C(=O)N1` (stereo not drawn) [Compound 1, 3-(4-chloro-2-nitrobenzoyl)-6,6-dimethylpiperidine-2,4-dione], the inhibition at 2 g/ha (Amaranthus retroflexus; Compound 1 2 g/ha alone) is reported as 25%, the inhibition at 4 g/ha (Amaranthus retroflexus; Compound 1 4 g/ha alone) is reported as 52% and the inhibition at 8 g/ha (Amaranthus retroflexus; Compound 1 8 g/ha alone) is reported as 73%. For the same compound, the inhibition at 16 g/ha (Amaranthus retroflexus; Compound 1 16 g/ha alone) was 87%, the inhibition at 31 g/ha (Amaranthus retroflexus; Compound 1 31 g/ha alone) was 95% and the inhibition at 63 g/ha (Amaranthus retroflexus; Compound 1 63 g/ha alone) was 96%. For the same compound, the ED₉₀ (Amaranthus retroflexus; Compound 1 alone) was “ED₉₀(g/ha) 22.58”, the “% control observed” value ([1]; Compound 1 @ 250g/ha) was 60% and the “% control observed” value ([1]; Compound 1 @ 500g/ha) was 80%. The “% control observed” value (Eleusine indica (ELEIN); Compound 1 @ 250g/ha) was 70%, the “% control observed” value (Eleusine indica (ELEIN); Compound 1 @ 500g/ha) was 80% and the “% control observed” value ([2]; Compound 1 @ 250g/ha) was 70%. For the same compound, the “% control observed” value ([2]; Compound 1 @ 500g/ha) was 80%.

In the case of `CS(=O)(=O)c1ccc(C(=O)C2C(=O)CCNC2=O)c(Cl)c1` (stereo not drawn) [Compound 126, 3-(2-chloro-4-methylsulphonylbenzoyl)piperidine-2,4-dione], the ED₅₀ (Brassica kaber [3]; Compound 126 alone) is reported as “ED₅₀(g/ha) 28.09”, the inhibition at 2 g/ha (Brassica kaber [3]; Compound 126 2 g/ha alone) is reported as 0% and the inhibition at 4 g/ha (Brassica kaber [3]; Compound 126 4 g/ha alone) is reported as 0%. The inhibition at 8 g/ha (Brassica kaber [3]; Compound 126 8 g/ha alone) was 0%, the inhibition at 16 g/ha (Brassica kaber [3]; Compound 126 16 g/ha alone) was 42% and the inhibition at 31 g/ha (Brassica kaber [3]; Compound 126 31 g/ha alone) was 69%. The inhibition at 63 g/ha (Brassica kaber [3]; Compound 126 63 g/ha alone) was 66%, the ED₉₀ (Solanum nigrum; Compound 126 alone, 2 leaves) was “ED₉₀(g/ha)4.18” and the inhibition at 2 g/ha (Solanum nigrum; Compound 126 2 g/ha alone, 2 leaves) was 72%. It also gave an inhibition at 4 g/ha (Solanum nigrum; Compound 126 4 g/ha alone, 2 leaves) of 90%, an inhibition at 8 g/ha (Solanum nigrum; Compound 126 8 g/ha alone, 2 leaves) of 97% and an inhibition at 16 g/ha (Solanum nigrum; Compound 126 16 g/ha alone, 2 leaves) of 100%. It also gave an inhibition at 31 g/ha (Solanum nigrum; Compound 126 31 g/ha alone, 2 leaves) of 100% and an inhibition at 63 g/ha (Solanum nigrum; Compound 126 63 g/ha alone, 2 leaves) of 100%.

In the case of `CS(=O)(=O)c1ccc(C(=O)C2C(=O)CCNC2=O)c([N+](=O)[O-])c1` (stereo not drawn) [Compound 110, 3-(4-methylsulphonyl-2-nitrobenzoyl)piperidine-2,4-dione], the ED₉₀ (Brassica kaber [3]; Compound 110 alone) is reported as “ED₉₀(g/ha) 6.38”, the inhibition at 2 g/ha (Brassica kaber [3]; Compound 110 2 g/ha alone) is reported as 45% and the inhibition at 4 g/ha (Brassica kaber [3]; Compound 110 4 g/ha alone) is reported as 84%. It also gave an inhibition at 8 g/ha (Brassica kaber [3]; Compound 110 8 g/ha alone) of 98%, an inhibition at 16 g/ha (Brassica kaber [3]; Compound 110 16 g/ha alone) of 99% and an inhibition at 31 g/ha (Brassica kaber [3]; Compound 110 31 g/ha alone) of 100%. The inhibition at 63 g/ha (Brassica kaber [3]; Compound 110 63 g/ha alone) was 100%, the ED₉₀ (Solanum nigrum; Compound 110 alone, 1 leaf) was “ED₉₀(g/ha) 5.87” and the inhibition at 2 g/ha (Solanum nigrum; Compound 110 2 g/ha alone, 1 leaf) was 38%. It also gave an inhibition at 4 g/ha (Solanum nigrum; Compound 110 4 g/ha alone, 1 leaf) of 80%, an inhibition at 8 g/ha (Solanum nigrum; Compound 110 8 g/ha alone, 1 leaf) of 98% and an inhibition at 16 g/ha (Solanum nigrum; Compound 110 16 g/ha alone, 1 leaf) of 100%. For the same compound, the inhibition at 31 g/ha (Solanum nigrum; Compound 110 31 g/ha alone, 1 leaf) was 100% and the inhibition at 63 g/ha (Solanum nigrum; Compound 110 63 g/ha alone, 1 leaf) was 100%.

With `CC1(C)CC(=O)C(C(=O)c2ccc(C(F)(F)F)cc2[N+](=O)[O-])C(=O)N1` (stereo not drawn) [Compound 99, 3-(2-nitro-4-trifluoromethylbenzoyl)-6,6-dimethylpiperidine-2,4-dione] the ED₉₀ (Brassica kaber [3]; Compound 99 alone) was “ED₉₀(g/ha) 31”, the inhibition at 2 g/ha (Brassica kaber [3]; Compound 99 2 g/ha alone) was 22% and the inhibition at 4 g/ha (Brassica kaber [3]; Compound 99 4 g/ha alone) was 40%. The inhibition at 8 g/ha (Brassica kaber [3]; Compound 99 8 g/ha alone) was 69%, the inhibition at 16 g/ha (Brassica kaber [3]; Compound 99 16 g/ha alone) was 58% and the inhibition at 31 g/ha (Brassica kaber [3]; Compound 99 31 g/ha alone) was 91%. It also gave an inhibition at 63 g/ha (Brassica kaber [3]; Compound 99 63 g/ha alone) of 91%, an inhibition at 2 g/ha (Amaranthus retroflexus; Compound 99 2 g/ha alone) of 37% and an inhibition at 4 g/ha (Amaranthus retroflexus; Compound 99 4 g/ha alone) of 85%. For the same compound, the inhibition at 8 g/ha (Amaranthus retroflexus; Compound 99 8 g/ha alone) was 88%, the inhibition at 16 g/ha (Amaranthus retroflexus; Compound 99 16 g/ha alone) was 80% and the inhibition at 31 g/ha (Amaranthus retroflexus; Compound 99 31 g/ha alone) was 91%. The inhibition at 63 g/ha (Amaranthus retroflexus; Compound 99 63 g/ha alone) was 98%, the ED₉₀ (Amaranthus retroflexus; Compound 99 alone) was “ED₉₀(g/ha) 14” and the “% inhibition of growth” value (Brassica kaber [4]; Compound 99 8 g/ha) was 0%. For the same compound, the “% inhibition of growth” value (Brassica kaber [4]; Compound 99 16 g/ha) was 9%, the “% inhibition of growth” value (Brassica kaber [4]; Compound 99 31 g/ha) was 10% and the “% inhibition of growth” value (Brassica kaber [4]; Compound 99 63 g/ha) was 32%. The “% inhibition of growth” value (Brassica kaber [4]; Compound 99 125 g/ha) was 20%, the “% inhibition of growth” value (Brassica kaber [4]; Compound 99 250 g/ha) was 90% and the ED₉₀ (Brassica kaber [4]; Compound 99 alone) was “ED₉₀(g/ha) 340.34”. The “% inhibition of growth” value (Sida spinosa; Compound 99 8 g/ha) was 0%, the “% inhibition of growth” value (Sida spinosa; Compound 99 16 g/ha) was 17% and the “% inhibition of growth” value (Sida spinosa; Compound 99 31 g/ha) was 26%. For the same compound, the “% inhibition of growth” value (Sida spinosa; Compound 99 63 g/ha) was 52%, the “% inhibition of growth” value (Sida spinosa; Compound 99 125 g/ha) was 88% and the “% inhibition of growth” value (Sida spinosa; Compound 99 250 g/ha) was 97%. For the same compound, the ED₉₀ (Sida spinosa; Compound 99 alone) was “ED₉₀(g/ha) 146.26”.
